Reference: ChEMBL document CHEMBL1129003, “Cycloleonuripeptides A, B and C, three new proline-rich cyclic nonapeptides from Leonurus heterophyllus” (Bioorg Med Chem Lett, 1996)
Converted amounts (≈) assume the structure as drawn.

System: P388
Test: Compound was evaluated for the growth inhibitory activity against p-388 lymphocytic leukemia cells.
Assay type: functional, cell-based, Mus musculus

Compound	IC50 (p388)	IC50 (Mus musculus, P388, read-out: IC50)
CC[C@@H](C)[C@H]1NC(=O)[C@@H](CC[S+](C)[O-])NC(=O)[C@H]2CCCN2C(=O)[C@H]2CCCN2C(=O)[C@@H](Cc2ccc(O)cc2)NC(=O)[C@H]2CCCN2C(=O)[C@H]2CCCN2C(=O)[C@H]2CCCN2C(=O)CNC1=O (single isomer, unassigned; isomer 1)	6 µg/mL (≈ 6.21 µM)	
CC[C@@H](C)[C@H]1NC(=O)[C@@H](CC[S+](C)[O-])NC(=O)[C@H]2CCCN2C(=O)[C@H]2CCCN2C(=O)[C@@H](Cc2ccc(O)cc2)NC(=O)[C@H]2CCCN2C(=O)[C@H]2CCCN2C(=O)[C@H]2CCCN2C(=O)CNC1=O (single isomer, unassigned; isomer 2)		3.7 µg/mL (≈ 3.83 µM)
